Source: ChEMBL document CHEMBL3507680, “University of Dundee, Gates Library screen for HepG2 cell viability”

Test: Human HepG2 cell viability assay in 384 well format
Assay type: toxicity, cell-based
Set-up: dose 125 nL, time 70.5 hour; concentration not given beside the values
Conditions: HepG2 cells, read-out: Inhibition

Compound | cytotoxicity at 70.5 h [%]
CC(=O)N1CCO[C@@H]2CN(S(=O)(=O)C3CC3)CC[C@@H]2C1 | -0.0787
O=C(c1ccnn1-c1ccc2ccccn12)N1CCCC1 | -10.6
CS(=O)(=O)N1C[C@@H]2COC[C@]2(COCC(=O)N2CCCC2)C1 | -5.68
O=C(c1ccnn1-c1ccc2ccccn12)N1CCOCC1 | -3.59
O=C(NC1CC2(CCN(CCO)CC2)Oc2ccccc21)c1csnn1 (configuration not stated) | -0.338
Cn1nc(C#N)c2c1CN(C(=O)c1nc[nH]n1)CCC2 | -1.6
Cc1ccc(N2CCCC3(CCN(C(=O)C4CC4)C3)C2)nn1 (configuration not stated) | -3.58
COCCN1CCO[C@@H]2CN(C(=O)c3ccc4[nH]ccc4c3)CC[C@@H]2C1 | -11.1
CNC(=O)[C@H]1C[C@@H]2CN(C(=O)c3cnc(C)cn3)C[C@@H]2N1C | -8.55
CCOCC1CN(S(=O)(=O)CC)Cc2nn(C)cc21 (configuration not stated) | -8.48
CCN1C[C@@H]2CN(C(=O)c3cccn3C)C[C@@H]2C1=O | 8.28
c1cnc(N2CCOCC3(CCN(c4cnccn4)CC3)C2)nc1 | -8.75
COc1cc(F)ccc1CC(=O)N1CC[C@H]2C(=O)NCCO[C@H]2C1 | 0.421
O=C(CC(F)(F)F)N1CCC2(CCCN(c3nncs3)C2)C1 (configuration not stated) | -3.95
CN1Cc2ccccc2CC2(CCN(C(=O)[C@H]3CCCO3)CC2)C1=O | -4.74
COc1cc(N2CCC3(C2)CN(c2cccnc2)C(=O)CN3C)ncn1 (configuration not stated) | -4.78
CSc1cccc(NC(=O)N2CCC3(CCC(=O)N(C4CC4)C3)CC2)c1 | -9.9
Cc1ccccc1C1(O)CCN(C(=O)CCc2cn3ccccc3n2)C1 (configuration not stated) | 17.9
c1cc(-c2cc(C3CCN(Cc4cncnc4)C3)ccn2)ccn1 (configuration not stated) | 0.319
COc1cc(OC)cc(-n2ccnc2-c2cc3n(n2)CCNC3)c1 | 19.3
CCN(CC)C(=O)Cn1cc(C(=O)NCCc2scnc2C)nn1 | -1.44
CSc1ccccc1CN1CCn2nc(CNC(=O)N(C)C)cc2C1 | -8.7

Compound | cytotoxicity at 70.5 h [%]
O=C1O[C@@H]2CN(c3ccccn3)C[C@@H]2N1CCCc1ccc(F)cc1 | -14.3
CCc1ccc(CN(C)c2ccc(-c3nc(COC)no3)cn2)nc1 | -4.59
CCCn1ncnc1C(C)NC(=O)C1CCN(C(=O)C2CC2)CC1 (configuration not stated) | -3.95
COc1ccnc(N2C[C@@H]3CC[C@H](C2)N(CC2CCC2)C3=O)n1 | -0.827
COCCc1nc(CSc2ccncc2)n(C)n1 | 1.99
CC(C)n1cc(-c2nc3cc(S(=O)(=O)N4CCCC4)ccc3n2C)cn1 | -25.1
Cc1nc2c(c(N(C)C)n1)CCN(C(=O)c1ccc(N)nc1)C2 | -7.14
CCN(CCOC)C(=O)c1ccc2c(c1)nc(N1CC[C@H](O)C1)n2C | -8.67
CCc1ncc2c(n1)CN(c1nccc(C3CCCC3)n1)C2 | -10.9
Cc1n[nH]c(C)c1Sc1ccccc1NC(=O)N1CCN(C)CC1 | 50.2
CSCCC(=O)N1CCc2c(ncnc2N2CCOCC2)C1 | -2.83
Cn1c(CN2CCN(c3cccnc3)CC2)cc2ccccc21 | -4.28
Cc1nc(N(C)C)ncc1C(=O)NCCc1csc(-c2cnccn2)n1 | -6.1
CSCCCN1C(=O)CC[C@H]2CN(Cc3ncc[nH]3)CC[C@H]21 | -5.45
COc1cccc(C(C(=O)O)N2CCC(Cn3cccn3)CC2)c1OC (configuration not stated) | -9.71
Cc1cnc(N2CCC(c3ccncc3)CC2)nc1-c1ccnn1C | -12.9
COc1ccccc1OC1CCN(c2ccncc2)CC1 | 12.9
O=C(Cc1ccc(O)c(F)c1)N1CCC2(CCNCC2)CC1 | -1.13
CCn1cc(CN2CCCC(COc3ccc(F)cc3)C2)cn1 (configuration not stated) | 12.1
CCC(NC1CCN(C(=O)c2ccccc2)CC1)c1cccs1 (configuration not stated) | -16.9
CN1CCC(n2nc(Cc3cccs3)nc2-c2ccncc2)CC1 | 2.89
Cc1cc(C(=O)N2CCC3(CC2)c2nc[nH]c2CCN3CC(C)C)no1 | 7

Compound | cytotoxicity at 70.5 h [%]
CN(C)C1CCCN(C(=O)c2cccc(-c3ncc[nH]3)c2)CC1 (configuration not stated) | -1.63
CNC(=O)C1CCCN(c2nc(-c3ccco3)nc3c2CCNCC3)C1 (configuration not stated) | -4.06
O=C(c1ccc2nccnc2c1)N1C[C@@H](CN2CCCC2)[C@@H](CO)C1 | -5.28
CN1CCN(c2ncccn2)CC12CCC(=O)N(CC1CC1)CC2 (configuration not stated) | 9.35
CN(Cc1ccoc1)C(=O)C1(Oc2ccc(Cl)cc2)CCNCC1 | -6.31
CCC(=O)N1CCN(C(=O)c2cn3ccsc3n2)[C@H]2CS(=O)(=O)C[C@H]21 | -13.8
CN1CC2(CCCN(C(=O)Cc3cccc(O)c3)C2)OC1=O (configuration not stated) | -6.74
CC(C)N(C)C(=O)C1CCC(=O)N(CCc2cccc(F)c2)C1 (configuration not stated) | -3.96
Cc1[nH]c(-c2ccccc2)nc1C(=O)N1CCC(O)(CO)CC1 | 17.9
CCC1CC(=O)NCc2nc3sc(C)cn3c21 (configuration not stated) | -4.35
CC(C)N(C)C(=O)c1coc(CN2CCN(c3ccccc3F)CC2)n1 | -3.77
CC(C)Nc1ccnc(-c2ccnc3c2ccn3C)n1 | -9.28
COCCN1CC(C(=O)N(C)Cc2cc(-c3cccnc3)no2)CC1=O (configuration not stated) | -11.9
CCN(CC)C1CCN(c2ncnc3c2CCN(C(=O)C2CC2)C3)C1 (configuration not stated) | -2.79
Cc1occc1C(=O)Nc1ccc(C(=O)NC[C@H]2CCCN2)cc1 | 7
CCn1nc(CC(C)C)cc1C(=O)NCCCN1CCOCC1 | -0.263
Cc1n[nH]c(SCC(=O)N[C@@H](C)C(N)=O)n1 | 0.227
O=C(c1ccc(-c2nc[nH]n2)cc1)N1CC[C@H](CO)[C@@H](O)C1 | -10.8
Cc1ccc(C(C(=O)NCCN2CCCCCC2)N(C)C)cc1 (configuration not stated) | 5.23
Cc1cccc(C2CCCN(C(=O)CN3CCCC3=O)C2)c1 (configuration not stated) | -21.9
Cc1cc(C)n(CCN(C)Cc2c[nH]nc2-c2ccc3c(c2)OCO3)n1 | -5.98
CC(C)OC(=O)N1C[C@H]2CC[C@@H]1CN(Cc1cccnc1)C2 | -3.17

Compound | cytotoxicity at 70.5 h [%]
CN1CCN(Cc2noc(CCc3nc(-c4ccccc4)no3)n2)CC1 | -6.63
O=C(Nc1nc(-c2ccccc2)ns1)N1CCC(F)CC1 | -3.26
NCc1n[nH]c(=O)n1-c1ccccc1Oc1ccccc1 | 9.56
CC(C)(C)c1ncc2c(n1)CN(C(=O)c1ccc(C#N)nc1)C2 | 11.4
O=C(CCc1n[nH]c2c1CCCC2)N1C[C@@H]2CC[C@H](C1)N(CC1CC1)C2 | -7.45
Cc1cc2ccccc2n1CCC(=O)NCCN(C)S(C)(=O)=O | -13.9
CN(C)C(C(=O)N1CCN(CCn2cccc2)CC1)c1cccc(F)c1 (configuration not stated) | 2.13
O=C(O)[C@@H]1CN(C(=O)CSCCN2CCCC2)C[C@H]1c1ccccc1 | 1.16
COCC(=O)N1CCCN(Cc2cc(O)c3ccccc3n2)CC1 | -9.45
O=C(c1ccc(-c2ccsc2)nc1)N1CCCN(C2CCCCC2)CC1 | 17
COc1ccc2cc(C3CN(C(=O)CN4CCCC4)CCO3)ccc2c1 (configuration not stated) | 2.28
CN(Cc1cc(C2CC2)[nH]n1)C(=O)c1cnn2ccn(C)c12 | -10.4
CC(C)(N)c1cn([C@@H]2c3ccccc3C3(CCNCC3)[C@H]2O)nn1 | -4.25
Cc1nnnn1-c1ccc(CC(=O)N2CCOCC(O)C2)cc1 (configuration not stated) | -6.4
COC(=O)c1ccc(CNC2CC(=O)N(Cc3cccc(F)c3)C2)cc1 (configuration not stated) | 0.023
Cc1ccccc1SC1CCN(C(=O)[C@@H]2C[C@@H](N)CN2)CC1 | -2.11
Cc1ccc(NCCCNC(=O)C2CC3(CCNCC3)CN2C)nc1 (configuration not stated) | -10.5
CCc1nc(CN(C)C(=O)CSC)no1 | -11.3
CCc1cc(N(C)CCCO)n2nccc2n1 | -4.76
CSc1cccc(CN2CCC(CCC(=O)NCCN(C)C)CC2)c1 | -6.05
CC(C)NC(=O)[C@@H]1C[C@H]2NCC[C@H]2O1 | -7.3
CCOCCN1C[C@@H]2CCCO[C@@H]2[C@H](NC(=O)c2cnoc2C)C1 | -6.18

Compound | cytotoxicity at 70.5 h [%]
C1CC(N2C[C@@H]3COC[C@]3(COCC3CCOCC3)C2)C1 | -1.94
Cc1oncc1C(=O)N[C@@H]1CN(Cc2ccoc2)C[C@@H]2CCCO[C@@H]21 | 2.7
Cc1cnc(CNC(=O)[C@@]23CCO[C@@H]2CCNC3)cn1 | 0.0687
Cc1oncc1C(=O)N[C@@H]1CN(CC2CC2)C[C@@H]2CCCO[C@@H]21 | -10.1
CN(C)C1CC2(CCN(C(=O)NC3CC3)CC2)c2ccccc21 (configuration not stated) | -7.23
Cc1noc([C@@H]2C[C@H]3CN(Cc4ccc5c(c4)OCO5)C[C@H]3O2)n1 | -16.8
CCO[C@@H]1CC[C@H]2[C@H]1OCCN2CCOCc1ccccc1 | -17.9
CCO[C@H]1CC[C@H]2[C@H]1OCCN2CCOCc1ccccc1 | -11.1
CN1CCO[C@@H]2CN(C(=O)c3ccc4[nH]ccc4c3)CC[C@@H]2C1 | -10.4
CCN1CCO[C@@H]2CN(C(=O)c3ccc4[nH]ccc4c3)CC[C@@H]2C1 | -7.4
O=C(NC1CC1)[C@@H]1CCO[C@@H]2CCN(CC3CCC3)C[C@H]21 | -2.8
COCCN1CCOCC12CCN(c1nccs1)CC2 | -20.8
O=C(NCc1cnc2n1CCN(Cc1ccoc1)C2)c1ccno1 | -0.405
Cc1cnc(N2C[C@H]3CCCC(N(C)Cc4ccccn4)[C@H]3C2)nc1 (some centres not stated) | -9.85
Cc1ccc(CN2CCCC3(CCCCN3S(C)(=O)=O)C2)s1 (configuration not stated) | 19.2
Cc1ccc(CN2CCOC3(CCN(CC4CCOC4)CC3)C2)cc1 (configuration not stated) | -1.57
CNC(=O)[C@H]1C[C@@H]2CN(C(=O)c3ccc(C)nc3)C[C@@H]2N1C(C)C | -9.38
Cc1cccc(CN2CCOC3(CCCN(CC(=O)N(C)C)C3)C2)n1 (configuration not stated) | -5.53
CN1CCN(Cc2cccnc2)C(=O)C12CCN(C1CCOC1)CC2 (configuration not stated) | -5.29
